The numbers were not newly measured in patent publication US20230248672A1, “COMPOSITIONS COMPRISING GARDOS CHANNEL ANTAGONISTS AND THEIR USES” (ADIMABIO LLC, priority 2020, published 2023), which cites them from elsewhere.

Structures are written as SMILES. ≈ marks a conversion by molar mass, not a printed value.

In one data set the target is Gardos channel (Homo sapiens, UniProt O15554).
Experiment in data set [1]: not given
The source holds these as a separate data set.

Experiment in data set [2]: not given
The source holds these as a separate data set.

The conditions of data set [3]: rats, administered orally.
In data set [4] the test system is sickle cell disease patients.

In the case of `Clc1ccccc1C(c1ccccc1)(c1ccccc1)n1ccnc1` [Clotrimazole], on Gardos channel (normal and sickle erythrocytes), the “inhibition of the Gardos channel” value is on record as “specific, potent inhibitor”.

In general, log P refers to a log measure of how a compound divides between an organic and an aqueous phase. A word on the aqueous solubility: it is how much of the substance goes into solution per volume. Consider `NC(=O)C(c1ccccc1)(c1ccc(F)cc1)c1ccc(F)cc1` [senicapoc, 2,2-bis(4-fluorophenyl)-2-phenylacetamide], for which the oral bioavailability is on record as 51%. Besides, the “log P” value in data set [1] is recorded as 3.59. Moreover, the aqueous solubility in data set [2] is 975 µg/mL (≈ 3.02 mM). In addition, the “time at which maximum concentration is attained” value in data set [3] was 4 h. Besides, on Gardos channel (red blood cells), the “block of potassium efflux through the Gardos channel” value was “selectively blocks”. Moreover, the “rate of sickle cell painful crises” value in data set [4] (compared to placebo) is “no significant improvement”. Further, the tolerability result in data set [4] (dose of 10 mg, sickle cell disease patients) was “well tolerated”. For the same compound, in data set [4] (sickle cell disease patients), the hemoglobin entry is given as “dose-dependent increase” and the markers of hemolysis entry was “decrease”.
